Measured values published in patent US11299710B2, “Brown adipocyte progenitors in human skeletal muscle” (ENERGESIS PHARMACEUTICALS, INC., priority 2011, dated 2022).
Where “and” joins values, the source holds several entries; their conditions need not be identical. Equal values may be shown once.

Key:
[1] = system: UCP1 mRNA in human skeletal muscle (vastus lateralis); test: UCP1 mRNA expression in skeletal muscle biopsies before and after rosiglitazone treatment in vivo
Procedure: Since the PPARγ agonist rosiglitazone was a strong inducer of UCP1 mRNA expression in muscle CD34+ cells in culture, the effect of this compound in vivo in humans was investigated. Vastus lateralis muscle biopsies from 7 obese patients with type 2 diabetes mellitus treated for the management of their metabolic syndrome with rosiglitazone were used. The biopsies were obtained before and after 8 weeks of treatment with rosiglitazone (2×4 mg per day). […] In that study rosiglitazone, concomitantly with the improvement in insulin sensitivity, increased the level of expression of UCP1 in muscle by about 1.6-fold. […] The results are the means±s.e.m. of arbitrary values normalized using the corresponding cyclophilin A values (n=7, *p<0.05 vs. control).
In FIG. 5, showing UCP1 mRNA levels in skeletal muscle biopsies from a patient group (n=7), “control” corresponds to levels before treatment, and “Rosi” corresponds to levels after treatment (8 weeks) with rosiglitazone. Being a longitudinal study the effect of rosiglitazone on UCP1 levels in each individual (comparison of individual values for the “control”-before and “Rosi”-after conditions) were determined. Starting with 25 ng cDNA (produced by reverse transcription of RNA) the threshold of detection (Ct) during real-time PCR was about 22 for UCP1 and about 18 for cyclophilin. The effect of rosiglitazone (UCP1 level at end of treatment vs. before treatment) were as follows: […]
Quantitative real-time PCR was performed using ABI rapid thermal cycler system and a SYBR Green PCR master mix (Applied Biosystems, Foster City, Calif.), or an ABI 7300 Real-time PCR instrument, a TaqMan Gene Expression Master Mix (Applied Biosystems #4369016) and TaqMan Gene Expression Pre-formulated Assays for human uncoupling protein-1 (GenBank NM_021833) (Applied Biosystems Assay ID Hs01084772_m1, TaqMan Gene Expression Assay part #4351372) and for human peptidylprolyl isomerase A “cyclophilin A” (GenBank NM_021130) (Applied Biosystems Assay ID Hs99999904_m1, TaqMan® Gene Expression Assay part #4448485). Cyclophilin A was used as a control to account for any variations due to the efficiency of the reverse transcription. The upstream and downstream oligonucleotide primers were chosen on both sides of an intron to prevent amplification of contaminating genomic DNA.
Primers used for real time quantitative PCR in human skeletal muscle are as follows:
Data are expressed as means±s.e.m. Significances were evaluated using the unpaired Student's t-test. A paired Student's t-test was used to determine the effects of rosiglitazone on human skeletal muscle UCP1 mRNA levels. Significances were set at p<0.05.

[2] = system: CD31- cells; test: Quantification of UCP1 protein by fluorescence immunohistochemistry in CD31- cells; assay type: cell-based, human; settings: rosiglitazone 1 μM in MDM from day 0, 15 days
Text: Using this method, UCP1 staining can be evaluated using automated high content imaging. GE Healthcare's InCell 1000 High Content Imager combines automated microscopy with high content image analysis software (InCell Developer Toolbox). The reference compound rosiglitazone was used to promote the differentiation of the CD31− cells and increase the expression of UCP1. Using a primary antibody that recognizes UCP1, Abcam ab23841, and a secondary antibody, Alexafluor 488 goat anti-rabbit antibody, we can quantify relative UCP1 levels per cell.
Referring to FIGS. 17A-17B, culturing and differentiation of CD31− cells into brown adipocytes were performed as described in Methods without (FIG. 17A) or with (FIG. 17B) rosiglitazone (1 μM) added to the adipogenic medium (MDM) from day 0. […] Alexafluor 488 goat anti-rabbit antibody was used to quantify relative UCP1 levels (green). […] UCP1 signal intensity was measured using the GE Developer Toolbox software on images collected on the InCell 1000 Automated High Content Imager. […]
Culturing and differentiation of CD31− cells into brown adipocytes were performed using adipogenic differentiation medium lacking (Minimal Differentiation Medium, MDM) or containing 1 μM rosiglitazone (Reference Differentiation Medium, RDM). […] As a readout, total intensity of UCP1 signal within the cell was used, normalized to cell number.

[3] = system: human fetal muscle CD34+ cells; test: UCP1 mRNA expression by quantitative RT-PCR in cultured fetal muscle CD34+ cells; assay type: cell-based; settings: rosiglitazone 1 μM
Procedure: UCP1 mRNA expression in fetal muscle CD34+ cells could be modulated by drug treatment. Cell-permeating cAMP derivatives strongly stimulated (7 to 8-fold) UCP1 mRNA expression in both primary cultured and expanded cells. The effects of cAMP derivatives, 8-bromo-cAMP, 0.25 mM or (4-chlorophenylthio)-cAMP, 0.25 mM (cAMP) on UCP1 mRNA expression in CD34+ cells in primary culture (PC) or expanded up to passage 3 (P3) are shown in FIG. 3B. All the cells were grown for 4-6 days in EGM2 medium and then placed for 8-12 days in the adipogenic medium described under Materials and Methods. The results are means±s.e.m. of arbitrary values normalized using the corresponding cyclophilin A values. […]
Rosiglitazone, a PPARγ agonist, had no effect in primary culture cells but strongly stimulated (8-fold) UCP1 mRNA expression in expanded cells. The results are expressed as in FIG. 3B (**p<0.01, n=4-7). […]
Total cell RNA was prepared using the kit NucleoSpin® RNAII (Clontech, Palo Alto, Calif.), Extract-all solution (Eurobio, Courtaboeuf, France) or PureLink RNA Isolation Kit (Invitrogen #12183-016) and quantified by Biophotometry (Biophotometer, Eppendorf). […]
Arbitrary units were determined by normalizing target mRNA levels to cyclophilin mRNA levels (based on Cts), wherein the cyclophilin levels were first divided by 100,000 for ease of reference. […]

[4] = system: human fetal muscle-derived CD31- cells; test: UCP1 mRNA expression by quantitative RT-PCR in CD31- cells; assay type: cell-based; settings: day 16 of differentiation; normalized with cyclophilin A; rosiglitazone 1 microM in MDM from day 0; BMP7 6 nM 2 days before day 0 then MDM
Procedure: UCP1 mRNA expression in human fetal muscle-derived CD31− cells at day 16 of differentiation were measured.
All the cells were grown for 3 days in proliferation medium (EGM2) and then (on day 0) placed for 16 days in adipogenic differentiation medium (Minimal Differentiation Medium, MDM). The “EGM2” cells were maintained in EGM2 medium all along. Rosiglitazone (1 microM) was added from day 0 and kept in the medium until the end of the study. BMP7 (6 nM) was added 2 days before day 0 and removed at day 0. Effects of differentiation medium (MDM vs. EGM2), rosiglitazone (MDM+rosi vs. MDM) and BPM7 (MDM+BMP7 vs. MDM) are shown as fold change (as compared to EGM2 cells) on UCP1 mRNA expression in human muscle-derived brown adipocyte progenitor cells (CD31-). […]
Quantitative real-time PCR was performed using ABI rapid thermal cycler system and a SYBR Green PCR master mix (Applied Biosystems, Foster City, Calif.), or an ABI 7300 Real-time PCR instrument, a TaqMan Gene Expression Master Mix (Applied Biosystems #4369016) and TaqMan Gene Expression Pre-formulated Assays for human uncoupling protein-1 (GenBank NM_021833) (Applied Biosystems Assay ID Hs01084772_m1, TaqMan Gene Expression Assay part #4351372) and for human peptidylprolyl isomerase A “cyclophilin A” (GenBank NM_021130) (Applied Biosystems Assay ID Hs99999904_m1, TaqMan® Gene Expression Assay part #4448485). […]

[5] = system: CD31- cells (CD34+/CD45-/CD56-/CD146-/CD31-) from human fetal skeletal muscle; test: Differentiation of CD31- cells into adipocyte-like multilocular cells / brown adipocytes; assay type: cell-based
Procedure: (§1) With the aim of further purifying the CD34+ cells in search for the purest physiological brown adipocyte progenitors, stroma-vascular cells were purified from two independent samples of human fetal skeletal muscle (18-19 weeks of gestation). Following the CD45, CD56, CD34, and CD146 sorting described above, an additional step of FACS sorting using an anti-CD31 antibody was performed. The cells were sorted based on the presence of the mature endothelial cell surface marker CD31 (CD31+) or absence of that marker (CD31-). It was hypothesized that the CD31− subpopulation may be a purer progenitor of human brown adipocytes. The CD31− cell fraction amounted to about 80% of the CD34+ cell population derived from skeletal muscle. For purpose of simplicity, CD34+/CD45−/CD56−/CD146−/CD31− are called “CD31−” cells [EMC309 (CD31−) and EMC314 (CD31−)]. CD34+/CD45−/CD56−/CD146−/CD31+ are called “CD31+” cells [EMC309 (CD31+) and EMC314 (CD31+)]. In addition, the myogenic progenitor cells expressing the cell surface antigen CD56 (CD56+) were also sorted and cultured: CD34+/CD45−/CD56+ (from EMC314) and CD45−/CD56+ (from EMC309) are called “CD56+” cells [EMC309 (CD56+) and EMC314 (CD56+)].
(§2) The sorted cells (CD31−, CD31+, and CD56+ cell populations) were grown under the same conditions as described above, i.e., 2-4 days in proliferation medium (EGM2) and 10-16 days in adipogenic differentiation medium. […]

[6] = system: CD31+ cells (CD34+/CD45-/CD56-/CD146-/CD31+); test: Differentiation of CD31+ cells in adipogenic medium; assay type: cell-based, human; settings: MDM with or without rosiglitazone or BMP7
Procedure: as §1, §2

[7] = system: CD56+ cells; test: Differentiation of CD56+ cells in adipogenic medium; assay type: cell-based, human; settings: MDM with or without rosiglitazone or BMP7
Procedure: as §1, §2

Row | Molecule | increase of level of expression of UCP1 in muscle ([1]; 7 obese type 2 diabetes patients, 8 weeks, 2×4 mg per day, group mean, after vs before treatment) | increase of UCP1 level at end of treatment vs. before treatment ([1]; individual patients 1-7, 8 weeks rosiglitazone 2×4 mg per day) | UCP1 mRNA level after treatment, normalized to cyclophilin A ([1]; individual patients 1-7, after 8 weeks rosiglitazone) | UCP1 level at end of treatment relative to control (before treatment) ([1]; individual patients 1-7, control = 100%) | UCP1 intensity per nucleus [2] | increase of level of UCP1 protein ([2]; vs without rosiglitazone) [fold] | stimulation of UCP1 mRNA expression ([3]; expanded cells (P3), vs untreated control) [fold] | effect on UCP1 mRNA expression ([3]; primary culture cells (PC)) | increase of UCP1 expression compared to EGM2 control condition [4] | differentiation of CD31- cells into brown adipocytes ([5]; 6 nM, before induction of differentiation (day -3 or -2 to day 0)) | fraction of CD31- cells differentiated into adipocyte-like multilocular cells ([5]; MDM containing the compound) | differentiation of CD31+ cells into adipocyte-like multilocular cells [6] | differentiation of CD56+ cells into adipocyte-like multilocular cells [7]
1 | CN(CCOc1ccc(CC2SC(=O)NC2=O)cc1)c1ccccn1 (centres unmarked) [rosiglitazone] | about 1.6 fold | 180% and 8% and 310% and 10% and 50% and 80% | 730 arbitrary units and 600 arbitrary units and 556 arbitrary units and 142 arbitrary units and 652 arbitrary units and 453 arbitrary units and 677 arbitrary units | 280% and 108% and 410% and 110% and 150% and 100% and 180% | 105,542 | 7 | 8 | no effect | 507-553 fold | – | – | – | –
2 | BMP7: recombinant human bone morphogenic protein-7 from R&D Systems (protein, UniProt P18075 293-431, looked up) Bone morphogenetic protein 7: STGSKQRSQNRSKTPKNQEALRMANVAENSSSDQRQACKKHELYVSFRDLGWQDWIIAPEGYAAYYCEGECAFPLNSYMNATNHAIVQTLVHFINPETVPKPCCAPTQLNAISVLYFDDSSNVILKKYRNMVVRACGCH | – | – | – | – | – | – | – | – | 78-127 fold | strongly promoted | virtually all | did not differentiate | did not differentiate
